# Results: ChEMBL document CHEMBL1201862, “PubChem BioAssay data set” (2004)
#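 Briefly, cells in 96-well plates were exposed to five compound concentrations for 48 h, and endpoints were estimated by linear interpolation. At the GI50, growth is halved.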 The source made the active and inactive calls. Cut-off read from the data, not from the text of the source: active = GI50 up to about 1.1 µM and inactive = higher.
# Tests used:
# Experiment in all cases: NCI anticancer screen, dose series, 48 h
# SF-268 = tested on: SF-268
# SK-OV-3 = tested on: SK-OV-3
# NCI/ADR-RES = tested on: NCI/ADR-RES
# BT-549 = tested on: BT-549
# MOLT-4 = tested on: MOLT-4
# RXF 393 = tested on: RXF 393
# HCT-15 = tested on: HCT-15
# TK-10 = tested on: TK-10
# SR = tested on: SR
# U-251 = tested on: U-251
# UACC-62 = tested on: UACC-62
# PC-3 = tested on: PC-3
# M14 = tested on: M14
# K562 = tested on: K562
# MDA-N = tested on: MDA-N
# CAKI-1 = tested on: CAKI-1
# UACC-257 = tested on: UACC-257
# SNB-75 = tested on: SNB-75
# IGROV-1 = tested on: IGROV-1
# ACHN = tested on: ACHN
# 786-0 = tested on: 786-0
# OVCAR-5 = tested on: OVCAR-5
# OVCAR-8 = tested on: OVCAR-8
# EKVX = tested on: EKVX
# COLO 205 = tested on: COLO 205
# NCI-H226 = tested on: NCI-H226
# NCI-H23 = tested on: NCI-H23
# HOP-62 = tested on: HOP-62
# HT-29 = tested on: HT-29
# CCRF-CEM = tested on: CCRF-CEM
# Malme-3M = tested on: Malme-3M
# KM12 = tested on: KM12
# SF-295 = tested on: SF-295
# UO-31 = tested on: UO-31
# NCI-H522 = tested on: NCI-H522
# MDA-MB-231 = tested on: MDA-MB-231
# Hs-578T = tested on: Hs-578T
# OVCAR-3 = tested on: OVCAR-3
# SK-MEL-5 = tested on: SK-MEL-5
# RPMI-8226 = tested on: RPMI-8226
# HCT-116 = tested on: HCT-116
# HCC 2998 = tested on: HCC 2998
# OVCAR-4 = tested on: OVCAR-4
# A498 = tested on: A498
# SF-539 = tested on: SF-539
# HL-60 = tested on: HL-60
# T47D = tested on: T47D
# A549 = tested on: A549
# NCI-H460 = tested on: NCI-H460
# SN12C = tested on: SN12C
# MDA-MB-435 = tested on: MDA-MB-435
# MCF7 = tested on: MCF7
# SNB-19 = tested on: SNB-19
# DU-145 = tested on: DU-145
# SK-MEL-2 = tested on: SK-MEL-2
# LOX IMVI = tested on: LOX IMVI
# SW-620 = tested on: SW-620
# HOP-92 = tested on: HOP-92
# SK-MEL-28 = tested on: SK-MEL-28
smiles,measurement,setting,value
Cc1ccc(/N=N/C(=N/NC(=O)c2cc(Cl)ccc2O)c2ccc(N(CCC#N)CCC#N)cc2C)cc1,GI50,SF-268,25.1 µM (inactive)
same,GI50,SK-OV-3,32.9 µM (inactive)
same,GI50,NCI/ADR-RES,38.4 µM (inactive)
same,GI50,BT-549,27.5 µM (inactive)
same,GI50,MOLT-4,53.7 µM (inactive)
same,GI50,RXF 393,18.2 µM (inactive)
same,GI50,HCT-15,32.1 µM
same,GI50,TK-10,21.2 µM (inactive)
same,GI50,SR,51.2 µM (inactive)
same,GI50,U-251,18.2 µM (inactive)
same,GI50,UACC-62,22.7 µM (inactive)
same,GI50,PC-3,24.3 µM (inactive)
same,GI50,M14,30.6 µM (inactive)
same,GI50,K562,17.1 µM (inactive)
same,GI50,MDA-N,30.6 µM (inactive)
same,GI50,CAKI-1,41.4 µM (inactive)
same,GI50,UACC-257,13.2 µM (inactive)
same,GI50,SNB-75,26.7 µM (inactive)
same,GI50,IGROV-1,23.9 µM (inactive)
same,GI50,ACHN,24.4 µM (inactive)
same,GI50,786-0,28.1 µM (inactive)
same,GI50,OVCAR-5,41.5 µM (inactive)
same,GI50,OVCAR-8,20.7 µM (inactive)
same,GI50,EKVX,21.5 µM (inactive)
same,GI50,COLO 205,12.4 µM (inactive)
same,GI50,NCI-H226,17.1 µM (inactive)
same,GI50,NCI-H23,18.6 µM (inactive)
same,GI50,HOP-62,32.8 µM (inactive)
same,GI50,HT-29,14.6 µM (inactive)
same,GI50,CCRF-CEM,26 µM (inactive)
same,GI50,Malme-3M,20.6 µM (inactive)
same,GI50,KM12,18.1 µM (inactive)
same,GI50,SF-295,21.3 µM (inactive)
same,GI50,UO-31,24.8 µM (inactive)
same,GI50,NCI-H522,8.95 µM (inactive)
same,GI50,MDA-MB-231,25.3 µM (inactive)
same,GI50,Hs-578T,9.95 µM (inactive)
same,GI50,OVCAR-3,11.1 µM (inactive)
same,GI50,SK-MEL-5,16.8 µM (inactive)
same,GI50,RPMI-8226,8.36 µM (inactive)
same,GI50,HCT-116,19 µM (inactive)
same,GI50,HCC 2998,24.1 µM (inactive)
same,GI50,OVCAR-4,23.8 µM (inactive)
same,GI50,A498,12.1 µM (inactive)
same,GI50,SF-539,18.5 µM (inactive)
same,GI50,HL-60,4.55 µM (inactive)
same,GI50,T47D,7.29 µM (inactive)
same,GI50,A549,28.6 µM (inactive)
same,GI50,NCI-H460,21.8 µM (inactive)
same,GI50,SN12C,28.4 µM (inactive)
same,GI50,MDA-MB-435,34 µM (inactive)
same,GI50,MCF7,24.7 µM (inactive)
same,GI50,SNB-19,25.5 µM (inactive)
same,GI50,DU-145,26.9 µM (inactive)
same,GI50,SK-MEL-2,15.7 µM (inactive)
CC(C)Cn1cnc2c(SCc3ccc(Cl)cc3Cl)nc(N)nc21,GI50,SF-268,34.8 µM (inactive)
same,GI50,SK-OV-3,> 100 µM (inactive)
same,GI50,NCI/ADR-RES,26.5 µM (inactive)
same,GI50,BT-549,29.2 µM (inactive)
same,GI50,MOLT-4,7.57 µM (inactive)
same,GI50,RXF 393,17.9 µM (inactive)
same,GI50,HCT-15,16 µM
same,GI50,TK-10,23.1 µM (inactive)
same,GI50,SR,4.38 µM (inactive)
same,GI50,U-251,27.5 µM (inactive)
same,GI50,UACC-62,19.8 µM (inactive)
same,GI50,PC-3,16.5 µM (inactive)
same,GI50,M14,32.4 µM (inactive)
same,GI50,K562,11.7 µM (inactive)
same,GI50,MDA-N,41.1 µM (inactive)
same,GI50,CAKI-1,49 µM (inactive)
same,GI50,UACC-257,15.5 µM (inactive)
same,GI50,SNB-75,42.8 µM (inactive)
same,GI50,LOX IMVI,18.7 µM (inactive)
same,GI50,IGROV-1,48.8 µM (inactive)
same,GI50,ACHN,20.6 µM (inactive)
same,GI50,786-0,23.9 µM (inactive)
same,GI50,OVCAR-5,37.8 µM (inactive)
same,GI50,OVCAR-8,27.7 µM (inactive)
same,GI50,EKVX,14.5 µM (inactive)
same,GI50,COLO 205,11.5 µM (inactive)
same,GI50,NCI-H23,26.1 µM (inactive)
same,GI50,HOP-62,49.7 µM (inactive)
same,GI50,HT-29,27 µM (inactive)
same,GI50,SW-620,25.3 µM (inactive)
same,GI50,Malme-3M,26.4 µM (inactive)
same,GI50,KM12,27.2 µM (inactive)
same,GI50,SF-295,23.3 µM (inactive)
same,GI50,UO-31,23.3 µM (inactive)
same,GI50,NCI-H522,14.6 µM (inactive)
same,GI50,MDA-MB-231,39.1 µM (inactive)
same,GI50,Hs-578T,44.8 µM (inactive)
same,GI50,OVCAR-3,48.5 µM (inactive)
same,GI50,HOP-92,26.2 µM (inactive)
same,GI50,SK-MEL-5,10 µM (inactive)
same,GI50,RPMI-8226,10.1 µM (inactive)
same,GI50,HCT-116,23.2 µM (inactive)
same,GI50,HCC 2998,13.9 µM (inactive)
same,GI50,OVCAR-4,59.2 µM (inactive)
same,GI50,A498,16.1 µM (inactive)
same,GI50,SF-539,15.8 µM (inactive)
same,GI50,T47D,13.5 µM (inactive)
same,GI50,A549,25.1 µM (inactive)
same,GI50,NCI-H460,12 µM (inactive)
same,GI50,SK-MEL-28,57.1 µM (inactive)
same,GI50,SN12C,47.3 µM (inactive)
same,GI50,MDA-MB-435,32.3 µM (inactive)
same,GI50,MCF7,18.3 µM (inactive)
same,GI50,SNB-19,44.3 µM (inactive)
same,GI50,DU-145,> 100 µM (inactive)
same,GI50,SK-MEL-2,32.4 µM (inactive)
